Experimental data published in patent US20010044151A1, “Ligands for modulating the expression of exogenous genes via an ecdysone receptor complex” (priority 1998, published 2001).

Target: T1, ecdysteroid receptor complex in Plodia interpunctella (IAL-PID2) nuclear extract (Plodia interpunctella, UniProt Q6RVD3)
T1 sequence (Q6RVD3 1-541): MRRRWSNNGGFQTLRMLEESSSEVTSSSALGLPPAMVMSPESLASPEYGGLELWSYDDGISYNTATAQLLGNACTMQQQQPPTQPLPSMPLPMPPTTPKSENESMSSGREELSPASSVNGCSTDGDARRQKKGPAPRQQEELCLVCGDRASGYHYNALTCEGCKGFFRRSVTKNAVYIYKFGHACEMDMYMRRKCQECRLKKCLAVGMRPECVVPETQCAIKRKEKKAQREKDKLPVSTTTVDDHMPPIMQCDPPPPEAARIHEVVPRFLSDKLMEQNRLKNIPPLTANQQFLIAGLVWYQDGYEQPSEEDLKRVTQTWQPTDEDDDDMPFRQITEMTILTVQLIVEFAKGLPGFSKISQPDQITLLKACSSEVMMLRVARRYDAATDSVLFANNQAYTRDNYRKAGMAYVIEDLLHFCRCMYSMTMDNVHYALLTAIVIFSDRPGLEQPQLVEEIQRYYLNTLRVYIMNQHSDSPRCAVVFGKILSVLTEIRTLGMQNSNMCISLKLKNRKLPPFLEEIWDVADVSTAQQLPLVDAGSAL
T1 sequence (Q6IVK1 1-415 partner): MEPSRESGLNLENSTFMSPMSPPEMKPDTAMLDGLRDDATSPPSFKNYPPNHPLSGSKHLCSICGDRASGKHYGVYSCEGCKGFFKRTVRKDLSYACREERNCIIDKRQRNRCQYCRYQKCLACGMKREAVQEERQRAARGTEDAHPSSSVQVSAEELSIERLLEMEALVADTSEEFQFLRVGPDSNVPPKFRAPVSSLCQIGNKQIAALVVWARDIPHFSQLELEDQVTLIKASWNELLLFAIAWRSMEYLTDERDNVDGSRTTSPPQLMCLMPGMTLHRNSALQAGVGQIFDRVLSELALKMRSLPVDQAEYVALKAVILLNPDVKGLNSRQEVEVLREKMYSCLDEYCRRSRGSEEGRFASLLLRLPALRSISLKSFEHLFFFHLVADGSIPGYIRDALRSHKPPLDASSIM
Test: Competitive 3H-ponasterone A binding assay, Plodia nuclear ecdysone receptor extract
Settings: 3H-ponasterone A displacement
Procedure: The cell line IAL-PID2, derived from imaginal wing discs of the lepidopteran Plodia interpunctella was obtained from H. Oberlander and maintained as described (Lynn, E. E. and Oberlander, H., (1983), J. Insect Physiology, 29, 591-96). A 300 ml stationary phase culture of P. interpunctella cells was centrifuged at 700×g for 10 mm at room temperature to pellet the cells. The supernatant was aspirated and the cellular pellet resuspended in 35 ml TMT (TM buffer with 0.1% Triton X-100). The suspension was homogenized with twenty up and down strokes of a Dounce homogenizer on ice. Homogenate was incubated on ice for 10 minutes and then centrifuged for 15 min at 900×g. The pellet was resuspenced in 15 ml TM buffer and centrifuged at 2,300×g. This pellet was extracted in TMK buffer (TM buffer with 800 mM KCl) by using a glass rod to crush the pellet until a gelatinous slurry was formed and incubated on ice for 15 minutes. The extract was centrifuged at 100,000×g in a swinging bucket rotor for 60 minutes. The supernatant, which constituted the nuclear extract, was desalted on a 10 DG desalting column (Bio-Rad, 732-2010) equilibrated with T-buffer. The total protein concentration in the nuclear extract was adjusted to 5 mg per ml with T-buffer containing 1 mM DTT.
^3H ponasterone A, a potent phytoecdysteroid, (66,000 dpm; specific activity 170 Ci/mmole; NEN Life Science Products, Boston, Mass.) was mixed with 100 μl Kc cytosolic or Plodia nuclear ecdysone receptor extracts in […] glass test tubes in the absence or presence of 10 μM unlabelled 20-hydroxyecdysone (20E) to obtain an estimate of total or non-specific respectively, binding of tritiated ponasterone A. The tubes were vortexed and incubated overnight at 4° C. for Kc cytosolic extracts or 1.5 hours for Plodia nuclear extracts for binding reactions to reach equilibrium. At the end of equilibrium binding times, the bound tritiated ponasterone A was separated from the unbound by addition of ice-cold 600 μl or 300 μl dextran-coated charcoal solution (500 mg of Sigma HCL-washed activated charcoal, 50 mg Pharmacia Dextran T70, 50 ml T-buffer) to Kc or Plodia extracts, respectively. The tubes were vortexed briefly and centrifuged at 7,000×g to pellet the charcoal. The supernatant, 600 μl or 300 μl for Kc or Plodia extract reactions, respectively, containing tritiated ponasterone A bound to proteins, was aspirated into liquid scintillation vials containing 5 ml scintillation cocktail (ReadySafe®, Beckmann) each The mixture was vortexed and the amount of total or non-specifically bound radioactivity measured in a Beckmann LS500 liquid scinitllation counter with a 60% counting efficiency for tritium.
(§1) The concentrations of competitors that inhibited 50% of tritiated ponasterone A binding (IC50) was determined by incubating Kc or Plodia nuclear extracts or extracts of bacteria producing CfEcR(CDEF)-GST and CfUSP-GST fusions proteins with ^3H-ponasterone A (66,000 dpm per reaction) in the presence of a range of concentrations (0.1 nM to 10 μM) of test compounds. In the case of binding reactions using bacterial fusion proteins, 20 or one μl extract of bacteria producing CfEcR(CDEF)-GST or CfUSP-GST fusion proteins, respectively, were included per binding reaction. The assay conditions and determination of total and non-specific binding was as described above. The volume of competitor in solvent, like that for 20E or solvent alone, was kept at 1% of total reaction volume by using a 100 fold concentrated stock solution (i.e. a 100 fold dilution of stock solutions). The remainder of the assay was as described above. Each reaction was carried out in duplicate per concentration per test compound. Specific binding of ^3H-ponasterone A was determined by subtracting non-specific binding (that obtained in the presence of 10 μM 20E) from total (no competitor) or competed radioactivity bound. […]

SMILES	Plodia log(1/IC50)
CCOc1cccc(C(=O)NN(C(=O)c2cc(C)cc(C)c2)C(C)(C)C)c1C [Ligand 6]	8.82
CCc1c(C(=O)NN(C(=O)c2cc(C)cc(C)c2)C(C)(C)C)ccc2c1OCCO2 [Ligand 7]	8.78
COc1cccc(C(=O)NN(C(=O)c2cc(Cl)cc(Cl)c2)C(C)(C)C)c1C [Ligand 9]	9.00
CCc1c(OC)cccc1C(=O)NN(C(=O)c1cc(C)cc(Cl)c1)C(C)(C)C [Ligand 10]	8.80
COc1cccc(C(=O)NN(C(=O)c2cc(C)cc(C)c2)C(C)(C)C)c1C(C)C [Ligand 11]	8.93

Target: CfEcR(CDEF)-GST and CfUSP-GST fusion proteins
Test: Competitive 3H-ponasterone A binding assay, bacterial GST fusion proteins
Set-up: species or system Choristoneura fumiferana
Settings: bacterial CfEcR(CDEF)-GST/CfUSP-GST extracts, 3H-ponasterone A displacement
Text: Bacterial glutathion-S-transferase (GST) fusion proteins of the spruce budworm (Choristoneura fumiferana) EcR (CfEcR), containing CDEF domains only, and ultraspiracle protein (CfUSP) were also used in radioligand displacement assays. cDNA encoding the CDEF domains of CfEcR were constructed following PCR amplification using primers that contain BamH1 and EcoRI sites (Perera S C, M Sundaram, Krell P J, Retnakaran A, Dhadialla T S, S R Palli, 1999 Arch. Insect Biochem. Physiol. 41 In Press). The PCR produce was digested with BamHI and EcoRI and cloned into pGEX-3X vector obtained from Pharmacia Biotech. CfUSP coding region was amplified using primers that contain BamH1 and EcoRI sites and cloned into to pGEX-2T vector obtained from Pharmacia Biotech. E. coli transformed with each of the two vectors were grown and induced to produce the fusion proteins as detailed in the Pharmacia Biotech GST-technical bulletin.
as §1, with “compound.” for “compound. Specific binding of ^3H-ponasterone A was determined by subtracting non-specific binding (that obtained in the presence of 10 μM 20E) from total (no competitor) or competed radioactivity bound.”

SMILES	Bacterial CfECR log(1/IC50)
Cc1cc(C)cc(C(=O)N(NC(=O)c2cccc(O)c2C)C(C)(C)C)c1 [Ligand 14]	8.61
Cc1cc(CO)cc(C(=O)N(NC(=O)c2cccc(O)c2C)C(C)(C)C)c1 [Ligand 15]	8.49
